Measured values from patent US9284299B2, “Substituted 1H-indazol-1-ol analogs as inhibitors of beta catenin/Tcf protein-protein interactions” (UNIVERSITY OF UTAH RESEARCH FOUNDATION, priority 2012, dated 2016).
Like-named read-outs stand apart in the source and are kept apart here.

Key:
[1] = system: HCT 116 colon cancer cell line; test: MTS-based cell proliferation inhibition assay; conditions: 72 h, dose-dependent (FIG. 2)
Experimental: The cell proliferation agent, 3-(4,5-dimethylthiazol-2-yl)-5-(3-carboxymethoxyphenyl)-2-(4-sulfophenyl)-2H-tetrazolium (“MTS”), was purchased from Promega (Madison, Wis.) and phenazinemethosulfate from Sigma-Aldrich (St. Louis, Mo.). Cultured cell lines were seeded in 96-well plates at 3×10^3 cells/well, maintained overnight at 37° C., and incubated in the presence of the tested compounds at various concentrations. […] Cells were incubated in 10 μL of this solution at 37° C. for 3 h and the UV absorption at 490 nm was measured. Vehicle-treated cells was used as the negative control. The IC50 values and the Hill slopes were generated using Graphpad Prism 5.0. All data were expressed as mean±SD.

[2] = biological target: β-catenin/Tcf4 interaction (Homo sapiens (Human), UniProt P35222); test: Fluorescence polarization (FP) competitive inhibition assay, β-catenin/Tcf4; format: binding
Experimental: Experiments were performed in 96-well Microfluor 2 black plates (Waltham, Mass.), and the samples were read by a Synergy 2 plate reader (Biotek, Winooski, Vt.). […] The final reaction volume is 100 μL.
In the foregoing equation, mP, is the signal of the positive control; mPbound is the signal of the negative control; and mP is the signal of the tested inhibitor compound.

[3] = Table 2, mean ± standard deviation (n=3), read-out: Ki FP

Chain of β-catenin/Tcf4 interaction (P35222 138-686): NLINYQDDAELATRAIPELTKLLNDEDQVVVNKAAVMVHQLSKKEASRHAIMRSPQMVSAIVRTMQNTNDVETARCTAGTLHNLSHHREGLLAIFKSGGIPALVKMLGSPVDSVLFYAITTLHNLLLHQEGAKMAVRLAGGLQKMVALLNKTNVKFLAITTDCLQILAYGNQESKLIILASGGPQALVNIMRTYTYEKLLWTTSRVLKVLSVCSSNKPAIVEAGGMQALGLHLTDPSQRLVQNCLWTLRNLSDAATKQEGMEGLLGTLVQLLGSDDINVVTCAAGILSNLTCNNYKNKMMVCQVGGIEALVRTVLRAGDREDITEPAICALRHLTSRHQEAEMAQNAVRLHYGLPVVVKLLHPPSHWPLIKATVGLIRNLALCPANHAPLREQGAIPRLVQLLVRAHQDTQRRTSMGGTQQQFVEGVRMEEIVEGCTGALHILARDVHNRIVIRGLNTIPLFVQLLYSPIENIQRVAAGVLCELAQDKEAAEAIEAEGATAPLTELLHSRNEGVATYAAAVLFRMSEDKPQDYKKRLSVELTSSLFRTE

Row | Ki [2, 3] [µM] | Molecule | Inhibition of proliferation of colon cancer cell line HCT116 [1] | Ki ([2]; Table IV, FP assay, read-out: Ki ± SD β-catenin/Tcf4) [µM]
1 | – | 5-(2-(2H-TETRAZOL-5-YL)ETHYL)-1H-INDAZOL-1-OL [Compound 12] | inhibit the proliferation | –
2 | 165.4 ± 1.45 | O=c1[nH]c(Cc2ccc3c(c2)nnn3O)no1 [Compound 2, 3-((1-HYDROXY-1H-BENZO[D][1,2,3]TRIAZOL-5-YL)METHYL)-1,2,4-OXADIAZOL-5(4H)-ONE] | – | –
3 | 125 ± 1.3 | O=c1[nH]c(Cc2ccc3c(cnn3O)c2)no1 [Compound 10, 3-((1-HYDROXY-1H-INDAZOL-5-YL)METHYL)-1,2,4-OXADIAZOL-5(4H)-ONE] | – | –

Row | Molecule | Ki [2, 3] [µM] | Inhibition of proliferation of colon cancer cell line HCT116 [1] | Ki ([2]; Table IV, FP assay, read-out: Ki ± SD β-catenin/Tcf4) [µM]
4 | COc1c(C[C@@H](C)OC(=O)Oc2ccc(O)cc2)c2c3c(C[C@@H](C)OC(=O)c4ccccc4)c(OC)c(=O)c4c(O)cc(OC)c(c5c(OC)cc(O)c(c1=O)c52)c43 [PKF115-584, reference compound] | 17.8 ± 2.13 | – | 17.8 ± 2.13
